Reference: ChEMBL document CHEMBL5696441 (Nat Chem Biol, 2011)

How the values were obtained:
[1] = target: Casein kinase I isoform delta (Homo sapiens) (UniProt P48730); test: Inhibition of CSNK1D (unknown origin) assessed as remaining activity at 1 uM by Kinome scan method relative to control
[2] = target: Vascular endothelial growth factor receptor 1 (Homo sapiens) (UniProt P17948); test: Inhibition of FLT1 (unknown origin) assessed as remaining activity at 1 uM by Kinome scan method relative to control
[3] = target: T1, Serine/threonine-protein kinase NLK (Homo sapiens) (UniProt Q9UBE8); test: Inhibition of NLK (unknown origin) assessed as remaining activity at 1 uM by Kinome scan method relative to control
T1 sequence (whole entry): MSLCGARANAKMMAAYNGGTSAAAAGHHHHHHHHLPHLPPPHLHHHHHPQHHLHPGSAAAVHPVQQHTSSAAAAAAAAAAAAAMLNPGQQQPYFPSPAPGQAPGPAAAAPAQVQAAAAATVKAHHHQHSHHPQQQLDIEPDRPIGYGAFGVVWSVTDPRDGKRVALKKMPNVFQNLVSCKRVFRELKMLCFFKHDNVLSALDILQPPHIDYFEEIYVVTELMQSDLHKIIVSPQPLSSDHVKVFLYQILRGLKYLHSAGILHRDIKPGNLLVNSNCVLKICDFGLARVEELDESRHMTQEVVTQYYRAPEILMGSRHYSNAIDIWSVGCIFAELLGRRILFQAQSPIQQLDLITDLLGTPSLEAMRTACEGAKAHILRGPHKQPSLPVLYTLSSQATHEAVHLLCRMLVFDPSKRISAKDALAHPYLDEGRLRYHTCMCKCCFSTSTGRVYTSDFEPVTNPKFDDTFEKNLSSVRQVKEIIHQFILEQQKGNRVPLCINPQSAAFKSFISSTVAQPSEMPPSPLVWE

[4] = target: Mitogen-activated protein kinase 11 (Homo sapiens) (UniProt Q15759); test: Inhibition of P38beta (unknown origin) assessed as remaining activity at 1 uM by Kinome scan method relative to control
[5] = target: Macrophage-stimulating protein receptor (Homo sapiens) (UniProt Q04912); test: Inhibition of MST1R (unknown origin) assessed as remaining activity at 1 uM by Kinome scan method relative to control
[6] = target: RAC-gamma serine/threonine-protein kinase (Homo sapiens) (UniProt Q9Y243); test: Inhibition of AKT3 (unknown origin) assessed as remaining activity at 1 uM by Kinome scan method relative to control
[7] = target: Tyrosine-protein kinase HCK (Homo sapiens) (UniProt P08631); test: Inhibition of HCK (unknown origin) assessed as remaining activity at 1 uM by Kinome scan method relative to control
[8] = target: Serine/threonine-protein kinase MRCK gamma (Homo sapiens) (UniProt Q6DT37); test: Inhibition of DMPK2 (unknown origin) assessed as remaining activity at 1 uM by Kinome scan method relative to control
[9] = target: T2, Serine/threonine-protein kinase Nek2 (Homo sapiens) (UniProt P51955); test: Inhibition of NEK2 (unknown origin) assessed as remaining activity at 1 uM by Kinome scan method relative to control
T2 sequence (whole entry): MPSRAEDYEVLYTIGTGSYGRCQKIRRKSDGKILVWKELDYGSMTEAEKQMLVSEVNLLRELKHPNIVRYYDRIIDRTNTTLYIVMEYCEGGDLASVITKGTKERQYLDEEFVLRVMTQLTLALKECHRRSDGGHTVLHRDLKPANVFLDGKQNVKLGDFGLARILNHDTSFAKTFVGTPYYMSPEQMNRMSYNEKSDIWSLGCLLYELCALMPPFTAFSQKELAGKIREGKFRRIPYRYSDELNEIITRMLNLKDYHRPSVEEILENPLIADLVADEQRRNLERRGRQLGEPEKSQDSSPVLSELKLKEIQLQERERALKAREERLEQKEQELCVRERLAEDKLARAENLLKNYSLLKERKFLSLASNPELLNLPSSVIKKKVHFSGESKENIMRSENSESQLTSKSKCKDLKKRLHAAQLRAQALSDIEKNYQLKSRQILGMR

[10] = target: Dual specificity testis-specific protein kinase 1 (Homo sapiens) (UniProt Q15569); test: Inhibition of TESK1 (unknown origin) assessed as remaining activity at 1 uM by Kinome scan method relative to control
[11] = target: Serine/threonine-protein kinase DCLK3 (Homo sapiens) (UniProt Q9C098); test: Inhibition of DCAMKL3 (unknown origin) assessed as remaining activity at 1 uM by Kinome scan method relative to control
[12] = tested on: Phosphatidylinositol 4,5-bisphosphate 3-kinase catalytic subunit alpha isoform (Homo sapiens), P42336 [C420R]; test: Inhibition of PIK3CA C420R mutant (unknown origin) assessed as remaining activity at 1 uM by Kinome scan method relative to control
[13] = target: Dual specificity mitogen-activated protein kinase kinase 2 (Homo sapiens) (UniProt P36507); test: Inhibition of MEK2 (unknown origin) assessed as remaining activity at 1 uM by Kinome scan method relative to control
[14] = target: Serine/threonine-protein kinase PLK1 (Homo sapiens) (UniProt P53350); test: Inhibition of PLK1 (unknown origin) assessed as remaining activity at 1 uM by Kinome scan method relative to control
[15] = target: T3, TGF-beta receptor type-1 (Homo sapiens) (UniProt P36897); test: Inhibition of TGFBR1 (unknown origin) assessed as remaining activity at 1 uM by Kinome scan method relative to control
T3 sequence (whole entry): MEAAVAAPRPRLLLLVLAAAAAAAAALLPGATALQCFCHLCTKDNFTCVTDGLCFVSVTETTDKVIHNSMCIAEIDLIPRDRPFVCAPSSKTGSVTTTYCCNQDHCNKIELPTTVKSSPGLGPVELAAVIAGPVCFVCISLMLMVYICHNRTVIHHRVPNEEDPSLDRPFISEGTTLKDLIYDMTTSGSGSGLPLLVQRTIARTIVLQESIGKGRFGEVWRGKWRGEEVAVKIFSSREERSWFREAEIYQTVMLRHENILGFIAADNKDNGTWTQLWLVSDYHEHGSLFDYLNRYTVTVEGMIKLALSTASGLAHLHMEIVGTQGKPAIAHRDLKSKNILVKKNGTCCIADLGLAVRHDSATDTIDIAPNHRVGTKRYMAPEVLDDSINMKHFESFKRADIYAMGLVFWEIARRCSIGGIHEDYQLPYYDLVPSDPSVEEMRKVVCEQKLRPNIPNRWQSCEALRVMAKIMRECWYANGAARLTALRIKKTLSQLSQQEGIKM

[16] = target: Cyclin-dependent kinase 14 (Homo sapiens) (UniProt O94921); test: Inhibition of PFTK1 (unknown origin) assessed as remaining activity at 1 uM by Kinome scan method relative to control
[17] = target: Serine/threonine-protein kinase 35 (Homo sapiens) (UniProt Q8TDR2); test: Inhibition of STK35 (unknown origin) assessed as remaining activity at 1 uM by Kinome scan method relative to control
[18] = target: LIM domain kinase 1 (Homo sapiens) (UniProt P53667); test: Inhibition of LIMK1 (unknown origin) assessed as remaining activity at 1 uM by Kinome scan method relative to control

Chain of Mitogen-activated protein kinase 11 (Homo sapiens) (Q15759 whole entry): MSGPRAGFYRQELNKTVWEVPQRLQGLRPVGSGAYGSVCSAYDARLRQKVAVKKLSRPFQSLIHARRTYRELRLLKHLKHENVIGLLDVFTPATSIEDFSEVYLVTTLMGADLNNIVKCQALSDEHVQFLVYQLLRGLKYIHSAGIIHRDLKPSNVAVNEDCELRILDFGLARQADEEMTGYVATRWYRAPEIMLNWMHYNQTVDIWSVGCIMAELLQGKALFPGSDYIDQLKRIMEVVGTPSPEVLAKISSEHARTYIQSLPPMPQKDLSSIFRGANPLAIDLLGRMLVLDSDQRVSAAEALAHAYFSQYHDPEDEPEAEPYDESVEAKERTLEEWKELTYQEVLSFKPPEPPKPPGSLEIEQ
Chain of Serine/threonine-protein kinase DCLK3 (Homo sapiens) (Q9C098 whole entry, canonical isoform): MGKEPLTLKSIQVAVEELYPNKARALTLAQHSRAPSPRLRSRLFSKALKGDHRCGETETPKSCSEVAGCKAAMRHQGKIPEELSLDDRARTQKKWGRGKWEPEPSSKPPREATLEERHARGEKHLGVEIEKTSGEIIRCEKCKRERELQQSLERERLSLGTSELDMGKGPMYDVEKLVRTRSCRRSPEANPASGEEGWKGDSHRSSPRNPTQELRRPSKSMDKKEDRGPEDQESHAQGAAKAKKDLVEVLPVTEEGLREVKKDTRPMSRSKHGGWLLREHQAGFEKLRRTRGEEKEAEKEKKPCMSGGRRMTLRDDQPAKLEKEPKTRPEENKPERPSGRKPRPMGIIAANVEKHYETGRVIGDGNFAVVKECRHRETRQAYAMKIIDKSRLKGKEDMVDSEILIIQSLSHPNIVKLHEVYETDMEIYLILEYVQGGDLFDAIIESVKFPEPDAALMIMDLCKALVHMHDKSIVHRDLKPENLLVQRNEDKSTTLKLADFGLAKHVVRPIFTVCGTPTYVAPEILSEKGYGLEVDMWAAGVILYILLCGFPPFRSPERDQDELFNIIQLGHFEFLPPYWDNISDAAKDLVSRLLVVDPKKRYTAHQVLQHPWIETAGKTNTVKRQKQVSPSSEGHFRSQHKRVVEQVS
Chain of Vascular endothelial growth factor receptor 1 (Homo sapiens) (P17948 whole entry): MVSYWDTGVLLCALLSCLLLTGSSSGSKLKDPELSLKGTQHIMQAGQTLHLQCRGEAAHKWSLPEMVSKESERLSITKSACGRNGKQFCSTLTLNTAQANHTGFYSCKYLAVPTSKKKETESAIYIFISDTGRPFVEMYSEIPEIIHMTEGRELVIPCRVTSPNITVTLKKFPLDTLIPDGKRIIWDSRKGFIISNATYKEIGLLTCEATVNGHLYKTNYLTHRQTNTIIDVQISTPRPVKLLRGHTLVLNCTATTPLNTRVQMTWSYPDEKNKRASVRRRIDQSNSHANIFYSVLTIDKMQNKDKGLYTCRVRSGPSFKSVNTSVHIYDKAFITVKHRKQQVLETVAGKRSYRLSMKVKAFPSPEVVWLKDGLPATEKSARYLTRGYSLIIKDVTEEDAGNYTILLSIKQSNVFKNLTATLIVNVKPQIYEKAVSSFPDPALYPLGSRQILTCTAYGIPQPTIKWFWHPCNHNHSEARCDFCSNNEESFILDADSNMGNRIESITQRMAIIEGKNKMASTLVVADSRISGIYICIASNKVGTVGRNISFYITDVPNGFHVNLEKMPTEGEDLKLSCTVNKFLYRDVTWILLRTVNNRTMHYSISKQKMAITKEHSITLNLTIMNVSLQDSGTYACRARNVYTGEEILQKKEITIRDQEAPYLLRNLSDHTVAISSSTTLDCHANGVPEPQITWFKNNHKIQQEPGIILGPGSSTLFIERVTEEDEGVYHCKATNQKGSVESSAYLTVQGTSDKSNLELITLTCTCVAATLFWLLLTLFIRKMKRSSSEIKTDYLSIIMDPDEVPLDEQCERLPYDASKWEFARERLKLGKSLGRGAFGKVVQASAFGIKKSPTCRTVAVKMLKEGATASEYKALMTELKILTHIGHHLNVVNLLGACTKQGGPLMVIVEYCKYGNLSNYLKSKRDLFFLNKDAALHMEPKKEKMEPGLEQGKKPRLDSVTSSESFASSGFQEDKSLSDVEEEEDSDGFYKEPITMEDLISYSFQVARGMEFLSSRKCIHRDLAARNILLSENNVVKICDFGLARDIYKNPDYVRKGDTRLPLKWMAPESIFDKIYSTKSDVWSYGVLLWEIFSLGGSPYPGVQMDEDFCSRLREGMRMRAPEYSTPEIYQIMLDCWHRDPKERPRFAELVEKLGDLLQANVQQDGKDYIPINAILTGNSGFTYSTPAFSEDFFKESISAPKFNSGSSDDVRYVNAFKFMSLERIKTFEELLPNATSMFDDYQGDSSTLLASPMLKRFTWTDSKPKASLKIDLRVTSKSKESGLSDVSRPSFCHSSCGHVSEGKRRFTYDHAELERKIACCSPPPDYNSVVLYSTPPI
Chain of Serine/threonine-protein kinase MRCK gamma (Homo sapiens) (Q6DT37 whole entry): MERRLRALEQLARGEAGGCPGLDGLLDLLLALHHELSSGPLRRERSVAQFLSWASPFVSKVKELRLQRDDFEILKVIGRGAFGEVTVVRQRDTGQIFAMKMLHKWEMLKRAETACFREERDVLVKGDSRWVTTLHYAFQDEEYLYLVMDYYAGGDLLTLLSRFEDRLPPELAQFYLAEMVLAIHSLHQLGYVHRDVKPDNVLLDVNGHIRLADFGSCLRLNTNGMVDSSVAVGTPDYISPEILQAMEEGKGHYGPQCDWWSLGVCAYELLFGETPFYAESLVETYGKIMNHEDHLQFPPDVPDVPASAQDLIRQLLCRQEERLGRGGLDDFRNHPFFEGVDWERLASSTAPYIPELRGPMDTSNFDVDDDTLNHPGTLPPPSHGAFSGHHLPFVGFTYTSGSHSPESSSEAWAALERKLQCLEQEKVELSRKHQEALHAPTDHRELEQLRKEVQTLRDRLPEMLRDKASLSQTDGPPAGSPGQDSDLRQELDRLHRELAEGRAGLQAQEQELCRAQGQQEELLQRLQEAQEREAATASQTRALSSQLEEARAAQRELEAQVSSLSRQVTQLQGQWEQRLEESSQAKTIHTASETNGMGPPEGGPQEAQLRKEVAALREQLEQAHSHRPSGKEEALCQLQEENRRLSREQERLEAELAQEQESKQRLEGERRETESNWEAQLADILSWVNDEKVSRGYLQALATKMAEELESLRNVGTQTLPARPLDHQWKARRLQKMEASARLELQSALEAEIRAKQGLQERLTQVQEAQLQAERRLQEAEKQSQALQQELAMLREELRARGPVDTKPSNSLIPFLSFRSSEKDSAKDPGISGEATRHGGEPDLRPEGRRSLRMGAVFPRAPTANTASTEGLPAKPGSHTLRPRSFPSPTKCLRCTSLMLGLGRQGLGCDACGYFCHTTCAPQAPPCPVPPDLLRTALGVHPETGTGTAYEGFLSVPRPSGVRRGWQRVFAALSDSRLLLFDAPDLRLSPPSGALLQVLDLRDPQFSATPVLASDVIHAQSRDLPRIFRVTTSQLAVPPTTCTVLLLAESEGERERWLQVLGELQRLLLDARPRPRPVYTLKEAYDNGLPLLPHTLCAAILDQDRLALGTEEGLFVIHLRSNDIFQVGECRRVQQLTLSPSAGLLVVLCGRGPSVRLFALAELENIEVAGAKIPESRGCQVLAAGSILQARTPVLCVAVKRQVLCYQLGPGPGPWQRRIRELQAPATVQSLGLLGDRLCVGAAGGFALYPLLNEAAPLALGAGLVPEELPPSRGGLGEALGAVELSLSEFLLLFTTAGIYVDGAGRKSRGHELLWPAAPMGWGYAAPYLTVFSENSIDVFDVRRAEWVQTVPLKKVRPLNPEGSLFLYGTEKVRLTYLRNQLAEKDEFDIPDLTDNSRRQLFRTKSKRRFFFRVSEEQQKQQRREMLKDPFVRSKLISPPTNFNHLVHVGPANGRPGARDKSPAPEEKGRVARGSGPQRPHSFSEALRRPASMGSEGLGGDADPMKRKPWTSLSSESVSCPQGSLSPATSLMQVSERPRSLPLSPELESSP
Chain of Dual specificity testis-specific protein kinase 1 (Homo sapiens) (Q15569 whole entry, looked up): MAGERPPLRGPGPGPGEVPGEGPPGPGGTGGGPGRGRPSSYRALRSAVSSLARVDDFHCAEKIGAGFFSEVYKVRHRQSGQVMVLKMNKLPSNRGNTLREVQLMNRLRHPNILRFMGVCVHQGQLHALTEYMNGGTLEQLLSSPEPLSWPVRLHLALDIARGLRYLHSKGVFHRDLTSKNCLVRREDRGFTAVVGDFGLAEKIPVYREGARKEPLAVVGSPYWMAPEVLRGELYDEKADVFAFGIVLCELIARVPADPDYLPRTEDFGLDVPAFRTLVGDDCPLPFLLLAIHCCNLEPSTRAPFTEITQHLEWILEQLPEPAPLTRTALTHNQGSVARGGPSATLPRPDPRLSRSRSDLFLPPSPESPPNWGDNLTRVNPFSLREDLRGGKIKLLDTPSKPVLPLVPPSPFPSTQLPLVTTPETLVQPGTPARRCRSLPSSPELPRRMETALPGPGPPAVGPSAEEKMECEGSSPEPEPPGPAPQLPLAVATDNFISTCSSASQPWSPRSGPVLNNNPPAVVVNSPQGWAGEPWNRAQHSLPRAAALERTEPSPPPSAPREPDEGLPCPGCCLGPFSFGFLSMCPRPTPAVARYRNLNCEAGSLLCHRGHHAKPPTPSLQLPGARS
Chain of Tyrosine-protein kinase HCK (Homo sapiens) (P08631 2-526 limits assumed): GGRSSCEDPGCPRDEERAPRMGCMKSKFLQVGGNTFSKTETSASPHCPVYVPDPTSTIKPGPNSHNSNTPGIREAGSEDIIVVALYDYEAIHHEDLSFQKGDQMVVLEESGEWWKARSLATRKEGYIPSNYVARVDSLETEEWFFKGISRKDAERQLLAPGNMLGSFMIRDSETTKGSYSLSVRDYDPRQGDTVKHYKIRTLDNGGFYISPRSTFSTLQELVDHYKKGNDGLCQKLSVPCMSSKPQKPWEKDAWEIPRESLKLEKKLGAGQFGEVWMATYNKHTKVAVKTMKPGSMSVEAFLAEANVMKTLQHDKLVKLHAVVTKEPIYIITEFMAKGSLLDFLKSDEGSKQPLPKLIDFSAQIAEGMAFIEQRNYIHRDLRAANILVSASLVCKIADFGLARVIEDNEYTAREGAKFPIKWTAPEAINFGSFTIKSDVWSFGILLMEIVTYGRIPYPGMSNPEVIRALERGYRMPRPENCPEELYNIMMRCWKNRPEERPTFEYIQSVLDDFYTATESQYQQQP

| Structure (SMILES) | Activity [1] [%] | Activity [2] [%] | Activity [3] [%] | Activity [4] [%] | Activity [5] [%] | Activity [6] [%] | Activity [7] [%] | Activity [8] [%] | Activity [9] [%] | Activity [10] [%] | Activity [11] [%] | Activity [12] [%] | Activity [13] [%] | Activity [14] [%] | Activity [15] [%] | Activity [16] [%] | Activity [17] [%] | Activity [18] [%] |
| --- | --- | --- | --- | --- | --- | --- | --- | --- | --- | --- | --- | --- | --- | --- | --- | --- | --- | --- |
| Nc1ccccc1Nc1ccc2c(c1)CCc1ccccc1C2=O | 98 | 85 | 87 | 0.9 | 97 | 88 | 93 | 92 | 90 | 90 | 91 | 91 | 88 | 93 | 90 | 94 | 80 | 96 |
| O=C1c2ccc(Nc3ccc(F)cc3F)cc2CCc2ccc(OC[C@H](O)CO)cc21 [Skepinone-L] | 100 | 82 | 96 | 0.15 | 79 | 90 | 97 | 100 | 94 | 100 | 99 | 100 | 90 | 88 | 100 | 86 | 95 | 86 |
